{"source": "patent US20230340060A1", "about": "“NOVEL MEANS TO PREDICT AND MANIPULATE NMDA RECEPTOR-MEDIATED TOXICITY” (FundaMental Pharma GmbH, priority 2020, published 2023)", "key": {"HEK293 cells": {"test_system": "HEK293 cells", "test": "Luminescent Cytotoxicity Assay (CytoTox-Glo) after transfection with GluN1 and GluN2A or GluN2B constructs", "assay_type": "cell-based, human", "settings": "for cell death: HEK293 cells; for susceptibility to NMDA receptor mediated toxicity: subject carrying the variant, based on HEK293 cell death, with GluN1, 48 h after transfection", "experimental": "HEK293 Cell Culture HEK293 cells were cultured in Dulbecco's Modified Eagle Medium (DMEM, Gibco™, 41965-039) supplement with 10% Fetal Bovine Serum (FBS, Gibco™, 10270), 1% Sodium Pyruvate (Gibco™, 11360070), 1% MEM NEAA (Gibco™, 11140035) and 0.5% Penicillin-Streptomycin (P-S; Sigma, P0781) and Passage15-25 were used for experiments.\nTo test the cytotoxicity of compounds according to the present invention, HEK293 cells (70-80% confluent) were transfected 24 hours after plating with expression vectors for both GluN1 and GluN2A or GluN2B, respectively (1:1; 2 μg plasmids in total per 6-cm dishes) with Lipofectamine 2000 according to manufacturer's instructions. The relative number of dead cells in the population at the indicated time points after transfection was measured with the CytoTox-Glo™ Cytotoxicity assay (Promega, G9290) according to manufacturer's instruction with minor modification. Briefly, 10% of total medium were mixed with 10 μL AAF-amino luciferin to reach a final volume at 200 μL with water, the dead cell relative luminescence units (DRLU) was measured by GloMax (Promega) in a 96 well white bottom polystyrene microplate (Corning Costar®, 3912). After all the measurements, lysis reagents have been added to the cells and 10% of lysate was used for the total cell relative luminescence units (TRLU) measurement. Cell death was calculated by the following equations: […]\nIn order to investigate the role of GluN2A and GluN2B in NMDA receptor mediated toxicity, the inventors have built constructs and transfected the plasmids into HEK293 cells.\nIn a next step, the inventors tried to assess the importance of the isoleucine and other amino acid residues in the inventive sequence motif. The inventors have built constructs containing above-mentioned mutants and transfected the plasmids into HEK293 cells.\nIn view of the results obtained for the GluN2A and GluN2B mutants of the inventive sequence motif in example 3, the inventors further tested the impact of naturally occurring variations in said sequence motif in the human gene pool on susceptibility towards NMDA receptor mediated toxicity. The inventors have built constructs containing above-mentioned mutants selected from the SNP database from NCBI (for GRIN2A, https://www.ncbi.nlm.nih.gov/projects/SNP/snp_ref.cgi?showRare=on&chooseRs=coding&g o=Go&locusId=2903, and for GRIN2B, https://www.ncbi.nlm.nih.gov/projects/SNP/snp_ref.cgi?showRare=on&chooseRs=coding&g o=Go&locusId=2904) and transfected the plasmids into HEK293 cells."}, "[1]": {"test_system": "primary mouse hippocampal neurons", "test": "Neuronal death assessment after rAAV-mediated expression of polypeptides", "assay_type": "cell-based", "settings": "rAAV infection on DIV3, fixed on DIV17, Hoechst staining, polypeptide fused to HA tag and GPI anchor", "experimental": "Primary mouse hippocampal were prepared and maintained as known to the skilled person. Briefly, hippocampi from P0 C57Bl/6N mice were dissociated and plated at a density of […] in Growth Medium (GM), consisting of Neurobasal A medium (Gibco™, 10888022), 2% serum free B27™ Supplement (Gibco™, 17504044), 1% rat serum (Biowest, S2150), 0.5 mM L-Glutamine (Sigma, G7513) and 0.5% P-S. Cytosine P-D-arabinofuranoside (AraC; Sigma, C1768; 2.8 μM) was added on DIV3 to prevent the proliferation of glial cells. From DIV8, half of the medium was replaced by GM without Rat serum every 48 h until being used for experiments. […]\nNeurons were fixed in 4% paraformaldehyde with 4% sucrose in PBS for 15 min followed with Hoechst staining. […] Cell death is analyzed by Cell Profiler and Cell Analyzer software.\nIn a next step, the inventors assessed whether the inventive sequence motif on its own is sufficient to induce NMDA receptor mediated toxicity. […] Neurons were fixed on DIV17, stained with Hoechst and cell death was quantified."}, "[2]": {"settings": "combined expression with GluN1, 48 h after transfection"}}}
{"substance": "GluN2A (I876N): GluN2A with naturally occurring substitution I876N", "values": [{"measurement": "cell death", "setting": "HEK293 cells; [2]", "result": "also toxic"}, {"measurement": "susceptibility to NMDA receptor mediated toxicity", "setting": "HEK293 cells", "result": "increased susceptibility"}, {"measurement": "susceptibility to NMDA receptor mediated toxicity", "setting": "HEK293 cells; listed as SEQ ID NO:6", "result": "significantly increased susceptibility"}]}
{"substance": "GluN2B-I2A2AH: GluN2B with substitutions I868A, I872A and A876H", "values": [{"measurement": "cell death", "setting": "HEK293 cells; [2]", "result": "essentially abrogated any toxic effect"}]}
{"substance": "GluN2A-I2A2: GluN2A with substitutions I867A and I871A (SEQ ID NO:2)", "values": [{"measurement": "cell death", "setting": "HEK293 cells; [2]", "result": "still show some toxic properties"}, {"measurement": "cell death", "setting": "HEK293 cells; combined expression with GluN1, 48 h after transfection, listed as GluN2A SEQ ID NO:2", "result": "at least reduced levels of toxicity"}]}
{"substance": "GluN2B: wild type rat GluN2B (UniProtKB-Q00960) comprising canonical sequence SEQ ID NO:7", "values": [{"measurement": "cell death", "setting": "HEK293 cells; [2]", "result": "induced cell death"}, {"measurement": "susceptibility to NMDA receptor mediated toxicity", "setting": "HEK293 cells", "result": "regular susceptibility"}]}
{"substance": "GluN2B (H873R): GluN2B with naturally occurring substitution H873R", "values": [{"measurement": "susceptibility to NMDA receptor mediated toxicity", "setting": "HEK293 cells", "result": "decreased susceptibility"}]}
{"substance": "GluN1: wild type rat GluN1 (UniProtKB-P35439), control when expressed alone", "values": [{"measurement": "cell death", "setting": "HEK293 cells; transfected alone (control), 48 h after transfection", "result": "neither GFP nor GluN1 alone (both serving as controls) could induce cell death"}]}
{"substance": "SEQ ID NO:10: mutant GluN2A derived polypeptide comprising SEQ ID NO:2, fused to HA tag and GPI anchor (TGVCSDRPGLLFSISRGAYSCAHGVHIEEKKKS; GluN2A core motif mutated with 2 Ile residues mutated to Ala residues plus flanking regions)", "values": [{"measurement": "cell death", "setting": "[1]", "result": "not able to induce cell death"}, {"measurement": "cell death", "setting": "[1]; listed as SEQ ID NO: 10", "result": "greatly reduces the cell death levels to approx. the levels of untransfected control"}]}
{"substance": "GluN2A: wild type rat GluN2A (UniProtKB-Q00959) comprising canonical sequence SEQ ID NO:1", "values": [{"measurement": "cell death", "setting": "HEK293 cells; [2]", "result": "induced cell death"}, {"measurement": "susceptibility to NMDA receptor mediated toxicity", "setting": "HEK293 cells", "result": "regular susceptibility"}]}
{"substance": "GluN2A-IAHA: GluN2A with substitutions I867A, I871A and H875A (SEQ ID NO:21)", "values": [{"measurement": "cell death", "setting": "HEK293 cells; [2]", "result": "at least reduced levels of toxicity"}]}
{"substance": "GluN2B-12A2: GluN2B with substitutions I868A and I872A (SEQ ID NO:21)", "values": [{"measurement": "cell death", "setting": "HEK293 cells; [2]", "result": "essentially abrogated any toxic effect"}]}
{"substance": "GluN2A (I867M): GluN2A with naturally occurring substitution I867M", "values": [{"measurement": "cell death", "setting": "HEK293 cells; [2]", "result": "also toxic"}, {"measurement": "susceptibility to NMDA receptor mediated toxicity", "setting": "HEK293 cells", "result": "increased susceptibility"}]}
{"substance": "GluN2A-13A3: GluN2A with substitutions I863A, I867A and I871A (SEQ ID NO:3)", "values": [{"measurement": "cell death", "setting": "HEK293 cells; [2]", "result": "still show some toxic properties"}, {"measurement": "cell death", "setting": "HEK293 cells; combined expression with GluN1, 48 h after transfection, listed as GluN2A SEQ ID NO:3", "result": "at least reduced levels of toxicity"}]}
{"substance": "GluN2A (S869R): GluN2A with naturally occurring substitution S869R", "values": [{"measurement": "cell death", "setting": "HEK293 cells; [2]", "result": "also toxic"}, {"measurement": "susceptibility to NMDA receptor mediated toxicity", "setting": "HEK293 cells", "result": "regular susceptibility"}]}
